Data from patent US20060269579A1, “Compositions for treating osteoarthritis” (Musculoskeletal Research LLC, priority 2005, published 2006).

Tests used:
synovial lining cells = details: human
connexin 43 = connexin 43 (Homo sapiens, UniProt P17302); details: Leybaert et al. 2003; cited from earlier work
[1] = system: effect of IL-1 on synovial cells; details: cited from earlier work

Chain of connexin 43 (P17302 2-382 limits assumed): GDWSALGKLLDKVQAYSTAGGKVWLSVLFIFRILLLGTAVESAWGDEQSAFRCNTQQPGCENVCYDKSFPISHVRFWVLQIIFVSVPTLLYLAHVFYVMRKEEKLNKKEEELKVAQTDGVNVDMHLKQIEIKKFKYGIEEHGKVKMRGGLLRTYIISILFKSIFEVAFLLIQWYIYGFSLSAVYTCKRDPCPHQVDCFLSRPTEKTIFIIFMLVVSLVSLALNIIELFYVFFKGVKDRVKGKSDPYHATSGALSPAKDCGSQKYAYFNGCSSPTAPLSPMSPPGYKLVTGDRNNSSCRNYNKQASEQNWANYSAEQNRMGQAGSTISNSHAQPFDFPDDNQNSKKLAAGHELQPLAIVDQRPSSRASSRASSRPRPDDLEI

| Compound | concentration in compositions that must not be exceeded (synovial lining cells) [µg/mL] | total dose that must not be exceeded (synovial lining cells) [mg] | block of connexin 43 (connexin 43) | interference with the effect of IL-1 on synovial cells [1] |
| --- | --- | --- | --- | --- |
| CCN(CC)CCNC(=O)c1ccc(N)cc1 [procainamide] | ≤ 2000 | ≤ 2.0 | – | – |
| VCYDKSFPISHVR [synthetic tridecapeptide, connexin 43 residue numbers 63-75, mimetic peptide] | – | – | able to block connexin 43 | – |
| SRPTEKTIFII [undecapeptide, connexin 43 residue numbers 204-214, mimetic peptide] | – | – | able to block connexin 43 | – |
| COc1ccc(CCN(C)CCCC(C#N)(c2ccc(OC)c(OC)c2)C(C)C)cc1OC (stereo not drawn) [verapamil] | ≤ 2000 | ≤ 2.0 | – | capable of interfering with the effect of IL-1 on synovial cells |
| COC(=O)C1=C(C)NC(C)=C(C(=O)OC)C1c1ccccc1[N+](=O)[O-] [nifedipine] | ≤ 2000 | ≤ 2.0 | – | – |
